Patent publication US20120010075A1 (priority 2009, published 2012)

test system: Leptosphaeria nodorum (LEPTNO); experiment: In vitro fungitoxicity of hydrazones with and without copper towards Leptosphaeria nodorum (Example 26); type: cell-based; conditions: Parastagonospora nodorum, 72 h, compound 0.05 μg/mL, copper-minus medium, 72 h at 25° C.; read-out: LEPTNO % Inhn. Minus Copper Observed

Structure (SMILES) | inhibition of growth at 0.05 µg/mL [%]
O=C(N/N=C/c1ccc(Cl)cc1O)c1ccccc1 [Example 233] | 5.6
O=C(N/N=C/c1cc(C(F)(F)F)cc(Cl)c1O)c1ccccc1 [Example 275] | 0

same assay, conditions: Parastagonospora nodorum, 72 h, copper-minus medium; test compound Concn. 0.05 μg/mL; 72 h at 25° C.; read-out: LEPTNO % Inhn. Minus Copper Observed

Structure (SMILES) | inhibition of growth at 0.05 µg/mL [%]
O=C(N/N=C/c1cccc(C(F)(F)F)c1O)c1ccccc1O [Example 351] | 7.7
Cc1ccc(C(=O)N/N=C/c2ccc(Cl)c(Cl)c2O)c(O)c1 [Example 364] | 8.4
O=C(N/N=C/c1c(Cl)ccc(Cl)c1O)c1cccc(Cl)c1 [Example 369] | 7
O=C(N/N=C/c1cc(Cl)cc(C(F)(F)F)c1O)c1ccccc1O [Example 384] | 28.6

same assay, conditions: compound 0.05 μg/mL, copper-plus medium (CuCl2.2H2O), 72 h at 25° C.

Structure (SMILES) | LEPTNO % Inhn. Plus Copper Observed [%]
O=C(N/N=C/c1ccc(Cl)cc1O)c1ccccc1 [Example 233] | 98.1
O=C(N/N=C/c1cc(C(F)(F)F)cc(Cl)c1O)c1ccccc1 [Example 275] | 98.4

same assay, conditions: copper-plus medium (CuCl2 10 μM); test compound Concn. 0.05 μg/mL; 72 h at 25° C.

Structure (SMILES) | LEPTNO % Inhn. Plus Copper Observed [%]
O=C(N/N=C/c1cccc(C(F)(F)F)c1O)c1ccccc1O [Example 351] | 96.1
Cc1ccc(C(=O)N/N=C/c2ccc(Cl)c(Cl)c2O)c(O)c1 [Example 364] | 95.8
O=C(N/N=C/c1c(Cl)ccc(Cl)c1O)c1cccc(Cl)c1 [Example 369] | 95.5
O=C(N/N=C/c1cc(Cl)cc(C(F)(F)F)c1O)c1ccccc1O [Example 384] | 95.8

test system: Phytophthora infestans; experiment: not given; type: in vivo, Phytophthora infestans on tomato; conditions: hydrazone 50 ppm + 50 μM CuCl2.2H2O, applied 24 h before inoculation, assessed 7 days after inoculation, tomato

Structure (SMILES) | TLB % Control [%]
O=C(N/N=C/c1ccc(Cl)cc1O)c1ccccc1 [Example 233] | 88.1
O=C(N/N=C/c1cc(C(F)(F)F)cc(Cl)c1O)c1ccccc1 [Example 275] | 79.7

same assay, conditions: hydrazone 50 ppm with 50 μM CuCl2.2H2O, applied 24 h before inoculation; assessed 7 days after inoculation; tomato late blight

Structure (SMILES) | TLB % Control [%]
O=C(N/N=C/c1cccc(C(F)(F)F)c1O)c1ccccc1O [Example 351] | 100.0
Cc1ccc(C(=O)N/N=C/c2ccc(Cl)c(Cl)c2O)c(O)c1 [Example 364] | 97.0
O=C(N/N=C/c1c(Cl)ccc(Cl)c1O)c1cccc(Cl)c1 [Example 369] | 98.0
O=C(N/N=C/c1cc(Cl)cc(C(F)(F)F)c1O)c1ccccc1O [Example 384] | 100.0

test system: Phytophthora capsici; experiment: In vitro fungitoxicity of hydrazones with and without copper towards Phytophthora capsici (Example 28, Table 3); type: cell-based; conditions: 0.050 μg/mL; copper-plus AS medium (CuCl2, 50 μM); 48 h

Structure (SMILES) | % Inhn Plus copper Observed [%]
O=C(N/N=C/c1cc(C(F)(F)F)cc(Cl)c1O)c1ccccc1 [Example 275] | 91.2
O=C(N/N=C/c1cccc(C(F)(F)F)c1O)c1ccccc1O [Example 351] | 87.9
Cc1ccc(C(=O)N/N=C/c2ccc(Cl)c(Cl)c2O)c(O)c1 [Example 364] | 23.2
O=C(N/N=C/c1c(Cl)ccc(Cl)c1O)c1cccc(Cl)c1 [Example 369] | 44.5
O=C(N/N=C/c1cc(Cl)cc(C(F)(F)F)c1O)c1ccccc1O [Example 384] | 71.1

same assay, conditions: Phytophthora capsici; 0.050 μg/mL; copper-minus AS medium; 48 h; read-out: % Inhn Minus copper Observed

Structure (SMILES) | inhibition of growth at 0.05 µg/mL [%]
O=C(N/N=C/c1cc(C(F)(F)F)cc(Cl)c1O)c1ccccc1 [Example 275] | 0
O=C(N/N=C/c1cccc(C(F)(F)F)c1O)c1ccccc1O [Example 351] | 0
Cc1ccc(C(=O)N/N=C/c2ccc(Cl)c(Cl)c2O)c(O)c1 [Example 364] | 0
O=C(N/N=C/c1c(Cl)ccc(Cl)c1O)c1cccc(Cl)c1 [Example 369] | 0
O=C(N/N=C/c1cc(Cl)cc(C(F)(F)F)c1O)c1ccccc1O [Example 384] | 0

test system: Ustilago maydis; experiment: In vitro fungitoxicity of hydrazones with and without copper towards Ustilago maydis (Example 29, Table 4); type: cell-based; conditions: 1 μg/mL; copper-plus medium (CuCl2, 10 μM); 48 h

Structure (SMILES) | % Inhn. Plus copper Observed [%]
O=C(N/N=C/c1cc(C(F)(F)F)cc(Cl)c1O)c1ccccc1 [Example 275] | 92.2
O=C(N/N=C/c1cccc(C(F)(F)F)c1O)c1ccccc1O [Example 351] | 97.7
Cc1ccc(C(=O)N/N=C/c2ccc(Cl)c(Cl)c2O)c(O)c1 [Example 364] | 92.9
O=C(N/N=C/c1c(Cl)ccc(Cl)c1O)c1cccc(Cl)c1 [Example 369] | 93.6
O=C(N/N=C/c1cc(Cl)cc(C(F)(F)F)c1O)c1ccccc1O [Example 384] | 96.6

same assay, conditions: Mycosarcoma maydis; 1 μg/mL; copper-minus medium; 48 h; read-out: % Inhn. Minus copper Observed

Structure (SMILES) | inhibition of growth at 1 µg/mL [%]
O=C(N/N=C/c1cc(C(F)(F)F)cc(Cl)c1O)c1ccccc1 [Example 275] | 0
O=C(N/N=C/c1cccc(C(F)(F)F)c1O)c1ccccc1O [Example 351] | 27.1
Cc1ccc(C(=O)N/N=C/c2ccc(Cl)c(Cl)c2O)c(O)c1 [Example 364] | 65.5
O=C(N/N=C/c1c(Cl)ccc(Cl)c1O)c1cccc(Cl)c1 [Example 369] | 3.1
O=C(N/N=C/c1cc(Cl)cc(C(F)(F)F)c1O)c1ccccc1O [Example 384] | 13.6

test system: Septoria tritici isolate USA-184; experiment: In vitro fungitoxicity of hydrazones with and without copper towards Septoria tritici (Example 30, Table 5); type: cell-based; conditions: Zymoseptoria tritici; 0.05 μg/mL; Colby formula; CuCl2; read-out: % Inhibition Plus copper Predicted

Structure (SMILES) | inhibition at 0.05 µg/mL [%]
O=C(N/N=C/c1cc(C(F)(F)F)cc(Cl)c1O)c1ccccc1 [Example 275] | 16.2
O=C(N/N=C/c1cccc(C(F)(F)F)c1O)c1ccccc1O [Example 351] | 44.4
Cc1ccc(C(=O)N/N=C/c2ccc(Cl)c(Cl)c2O)c(O)c1 [Example 364] | 22.4
O=C(N/N=C/c1c(Cl)ccc(Cl)c1O)c1cccc(Cl)c1 [Example 369] | 9.3
O=C(N/N=C/c1cc(Cl)cc(C(F)(F)F)c1O)c1ccccc1O [Example 384] | 57.5

same assay, conditions: Zymoseptoria tritici; 0.05 μg/mL; copper-minus medium; 90 h; read-out: % Inhibition Minus copper Observed

Structure (SMILES) | inhibition at 0.05 µg/mL [%]
O=C(N/N=C/c1cc(C(F)(F)F)cc(Cl)c1O)c1ccccc1 [Example 275] | 16.2
O=C(N/N=C/c1cccc(C(F)(F)F)c1O)c1ccccc1O [Example 351] | 44.4
Cc1ccc(C(=O)N/N=C/c2ccc(Cl)c(Cl)c2O)c(O)c1 [Example 364] | 22.4
O=C(N/N=C/c1c(Cl)ccc(Cl)c1O)c1cccc(Cl)c1 [Example 369] | 9.3
O=C(N/N=C/c1cc(Cl)cc(C(F)(F)F)c1O)c1ccccc1O [Example 384] | 57.5

same assay, conditions: Zymoseptoria tritici; 0.05 μg/mL; copper-plus medium CuCl2; 90 h; read-out: % Inhibition Plus copper Observed

Structure (SMILES) | inhibition at 0.05 µg/mL [%]
O=C(N/N=C/c1cc(C(F)(F)F)cc(Cl)c1O)c1ccccc1 [Example 275] | 93.5
O=C(N/N=C/c1cccc(C(F)(F)F)c1O)c1ccccc1O [Example 351] | 97.1
Cc1ccc(C(=O)N/N=C/c2ccc(Cl)c(Cl)c2O)c(O)c1 [Example 364] | 93.7
O=C(N/N=C/c1c(Cl)ccc(Cl)c1O)c1cccc(Cl)c1 [Example 369] | 93.2
O=C(N/N=C/c1cc(Cl)cc(C(F)(F)F)c1O)c1ccccc1O [Example 384] | 97

test system: Leptosphaeria nodorum (LEPTNO); experiment: Isolated metal-hydrazone complexes versus parent hydrazones, in vitro, Leptosphaeria nodorum (Example 31, Table 7); type: cell-based; conditions: Parastagonospora nodorum; 0.1 μg/mL; copper-minus medium; 72 h

Structure (SMILES) | inhibition at 0.1 µg/mL [%]
O=C(N/N=C/c1ccc(Cl)cc1O)c1ccccc1 [Example 233] | 8.4

test system: not given; experiment: not given; conditions: not given

Structure (SMILES) | melting point [°C]
O=C(N/N=C/c1cc(C(F)(F)F)cc(Cl)c1O)c1ccccc1 [Example 275] | 216 to 222
O=C(N/N=C/c1cccc(C(F)(F)F)c1O)c1ccccc1O [Example 351] | 230 to 234
Cc1ccc(C(=O)N/N=C/c2ccc(Cl)c(Cl)c2O)c(O)c1 [Example 364] | 271 to 278
O=C(N/N=C/c1c(Cl)ccc(Cl)c1O)c1cccc(Cl)c1 [Example 369] | 232 to 234
O=C(N/N=C/c1cc(Cl)cc(C(F)(F)F)c1O)c1ccccc1O [Example 384] | 258 to 260
